The values below come from US20240390508A1, “HUMAN TRANSFERRIN RECEPTOR BINDING PEPTIDE-DRUG CONJUGATE” (priority 2021, published 2024).

The assay has as its target transferrin receptor (hTfR) (Homo sapiens, UniProt P02786). The assay can be described thus: Intermolecular interaction evaluation test between transferrin receptor (hTfR) and peptide-nucleic acid conjugate using surface plasmon resonance (SPR). The assay is classed as binding. The procedure:
Intermolecular interaction evaluation test between transferrin receptor (hTfR) and peptide using surface plasmon resonance (SPR)
The various synthesized peptide-nucleic acid conjugates were tested for intermolecular interaction by surface plasmon resonance (SPR) of the peptide-nucleic acid conjugate with transferrin receptor (hTfR) using the method shown below. The specific test method is shown below.
NTA sensor chip (Global Life Science Technologies Japan Co., Ltd.) was inserted into Biacore T200 (Global Life Science Technologies Japan Co., Ltd.), prime operation was performed three times with running buffer: 10 mM HEPES pH 8.0 (Nacalai Tesque Co., Ltd.), 150 mM NaCl (Nacalai Tesque Co., Ltd.), 0.05% Tween 20 (Nacalai Tesque Co., Ltd.), 0.1% BSA (SIGMA-ALDRICH), and 1.0% DMSO (FUJIFILM Wako Pure Chemical Corporation), and equilibrated at a flow rate of 30 μL/min. 350 mM EDTA solution was reacted for 60 seconds at a flow rate of 10 μL/min, 0.5 mM NiCl2 solution (Kishida Chemical) was reacted for 60 seconds at a flow rate of 10 μL/min, and the NTA sensor chip was washed with 3 mM EDTA solution (Nacalai Tesque Co., Ltd.) for 60 seconds at a flow rate of 10 μL/min. After mixing 50 μL each of […] EDC solution (Global Life Science Technologies Japan Co., Ltd.) and […] NHS solution (Global Life Science Technologies Japan Co., Ltd.), the mixture was reacted for 420 seconds at a flow rate of 10 μL/min. 150 μL of a 0.5 μM hTfR solution was prepared by diluting with a running buffer and reacted for 300 seconds at a flow rate of 10 μL/min to immobilize hTfR on the NTA sensor chip. After immobilization, capping was performed by reacting with a 1.0 M ethanolamine aqueous solution (Global Life Science Technologies Japan Co., Ltd.) at a flow rate of 10 μL/min for 420 seconds. A peptide-nucleic acid conjugate solution adjusted to 10 mM in DMSO solution was diluted with running buffer to a final concentration of 10 μM peptide-nucleic acid conjugate solution, and 100 nM, 50 nM, 25 nM, 10 nM, 5 nM peptide-nucleic acid conjugate solutions were prepared. Using the aforementioned samples, the kinetics of the peptide against hTfR was obtained by SPR measurement.
The kinetics evaluation model was Single Cycle Kinetics, and curve fitting was performed using Biacore T200 Evaluation Software Version 3.0 (Global Life Science Technologies Japan Co., Ltd.). The obtained sensorgram was subjected to curve fitting using the least squares method, and the binding of the peptide-nucleic acid conjugate to hTfR was evaluated by determining the KD value.
(In SPR one partner is held on a chip, and binding of the other changes the refractive index at the surface.)

The pKd is −log10 of the Kd, conventionally taken in molar units. A low value points to a high Kd.

pKd: −log10 of the molar value.

Sequence of transferrin receptor (hTfR) (P02786 whole entry): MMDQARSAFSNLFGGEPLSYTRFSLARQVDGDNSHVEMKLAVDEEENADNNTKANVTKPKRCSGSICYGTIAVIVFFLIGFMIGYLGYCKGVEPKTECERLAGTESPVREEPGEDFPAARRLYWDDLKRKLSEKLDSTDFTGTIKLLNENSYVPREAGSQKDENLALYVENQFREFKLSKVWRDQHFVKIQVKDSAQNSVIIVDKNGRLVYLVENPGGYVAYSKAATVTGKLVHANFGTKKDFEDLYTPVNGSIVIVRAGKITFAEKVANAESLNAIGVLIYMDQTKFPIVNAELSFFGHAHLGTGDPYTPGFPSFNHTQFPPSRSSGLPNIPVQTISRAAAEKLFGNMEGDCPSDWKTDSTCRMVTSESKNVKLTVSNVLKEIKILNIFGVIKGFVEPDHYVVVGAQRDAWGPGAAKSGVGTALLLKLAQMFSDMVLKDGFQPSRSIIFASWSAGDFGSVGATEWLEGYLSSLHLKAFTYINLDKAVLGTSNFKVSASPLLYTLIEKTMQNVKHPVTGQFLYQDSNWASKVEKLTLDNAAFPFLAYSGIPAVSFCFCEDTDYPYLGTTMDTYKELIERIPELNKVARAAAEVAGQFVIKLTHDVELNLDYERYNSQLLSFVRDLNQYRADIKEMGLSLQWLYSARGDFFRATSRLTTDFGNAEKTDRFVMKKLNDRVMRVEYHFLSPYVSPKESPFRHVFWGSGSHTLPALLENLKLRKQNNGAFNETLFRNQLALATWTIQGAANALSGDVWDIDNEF

Molecule `CC[C@H](C)[C@@H]1NC(=O)[C@H](Cc2ccc(O)cc2)NC(=O)[C@H](Cc2ccc(O)cc2)NC(=O)[C@H](CC(N)=O)NC(=O)[C@H](Cc2c[nH]c3ccccc23)NC(=O)[C@H](C(C)C)NC(=O)[C@H](Cc2ccccc2)N(C)C(=O)[C@H](C(C)C)NC(=O)[C@H](C)NC(=O)CSC[C@@H](C(=O)NCC(=O)N[C@@H](CCCCn2nnc3c2CCC2C(CC3)C2COC(=O)NCC(=O)NCC(=O)NCC(=O)N[C@@H](CCC(=O)O)C(=O)N[C@@H](CCC(=O)O)C(=O)N[C@@H](CCC(=O)O)C(=O)N[C@@H](CO)C(=O)N[C@@H](CO)C(=O)N[C@@H](CSC2CC(=O)N(CCC(=O)N3C[C@@H](COP(=O)(N(C)C)N4C[C@@H](COP(=O)(N(C)C)N5C[C@@H](COP(=O)(N(C)C)N6C[C@@H](COP(=O)(N(C)C)N7C[C@@H](COP(=O)(N(C)C)N8C[C@@H](COP(=O)(N(C)C)N9C[C@@H](COP(=O)(N(C)C)N%10C[C@@H](COP(=O)(N(C)C)N%11C[C@@H](COP(=O)(N(C)C)N%12C[C@@H](COP(=O)(N(C)C)N%13C[C@@H](COP(=O)(N(C)C)N%14C[C@@H](COP(=O)(N(C)C)N%15C[C@@H](COP(=O)(N(C)C)N%16C[C@@H](COP(=O)(N(C)C)N%17C[C@@H](COP(=O)(N(C)C)N%18C[C@@H](COP(=O)(N(C)C)N%19C[C@@H](COP(=O)(N(C)C)N%20C[C@@H](COP(=O)(N(C)C)N%21C[C@@H](COP(=O)(N(C)C)N%22C[C@@H](COP(=O)(N(C)C)N%23C[C@@H](COP(=O)(N(C)C)N%24C[C@@H](COP(=O)(N(C)C)N%25C[C@@H](COP(=O)(N(C)C)N%26C[C@@H](COP(=O)(N(C)C)N%27C[C@@H](COP(=O)(N(C)C)N(C)CC(N)=O)O[C@@H](n%28cnc%29c(=O)[nH]c(N)nc%29%28)C%27)O[C@@H](n%27cc(C)c(=O)[nH]c%27=O)C%26)O[C@@H](n%26cc(C)c(=O)[nH]c%26=O)C%25)O[C@@H](n%25cnc%26c(=O)[nH]c(N)nc%26%25)C%24)O[C@@H](n%24ccc(N)nc%24=O)C%23)O[C@@H](n%23ccc(N)nc%23=O)C%22)O[C@@H](n%22cc(C)c(=O)[nH]c%22=O)C%21)O[C@@H](n%21ccc(N)nc%21=O)C%20)O[C@@H](n%20ccc(N)nc%20=O)C%19)O[C@@H](n%19cnc%20c(=O)[nH]c(N)nc%20%19)C%18)O[C@@H](n%18cnc%19c(=O)[nH]c(N)nc%19%18)C%17)O[C@@H](n%17cc(C)c(=O)[nH]c%17=O)C%16)O[C@@H](n%16cc(C)c(=O)[nH]c%16=O)C%15)O[C@@H](n%15ccc(N)nc%15=O)C%14)O[C@@H](n%14cc(C)c(=O)[nH]c%14=O)C%13)O[C@@H](n%13cnc%14c(=O)[nH]c(N)nc%14%13)C%12)O[C@@H](n%12cnc%13c(N)ncnc%13%12)C%11)O[C@@H](n%11cnc%12c(N)ncnc%12%11)C%10)O[C@@H](n%10cnc%11c(=O)[nH]c(N)nc%11%10)C9)O[C@@H](n9cnc%10c(=O)[nH]c(N)nc%109)C8)O[C@@H](n8cc(C)c(=O)[nH]c8=O)C7)O[C@@H](n7cnc8c(=O)[nH]c(N)nc87)C6)O[C@@H](n6cc(C)c(=O)[nH]c6=O)C5)O[C@@H](n5cc(C)c(=O)[nH]c5=O)C4)O[C@@H](n4ccc(N)nc4=O)C3)C2=O)C(N)=O)C(N)=O)NC(=O)[C@H](Cc2ccc(O)cc2)N(C)C(=O)[C@H](Cc2ccc(O)cc2)NC(=O)[C@H](CCCNC(=N)N)NC(=O)[C@H](CCCNC(=N)N)NC(=O)[C@H]([C@@H](C)CC)NC1=O` (stereo partly shown) [Example 58] had a pKd of more than 7.00.
